# Assay results as given in US20100041089A1, “IMPROVED METHOD FOR DETECTING CHEMICAL […]” (priority 2006, published 2010).
# Test system: yeast genes (expressed mRNA)
# Assay: DNA chip measurement of expressed mRNA of yeast genes after culture with a toxic chemical substance
# Type: cell-based, Saccharomyces cerevisiae S288C
# Method: Yeast (Saccharomyces cerevisiae S288C (a SUC2mal mel gap2 CUP1)) were cultured at 25° C. on YPD medium (yeast extract 1%, polypeptone 2%, glucose 2%). One of toxic chemical substances was added to the cell at logarithmic growth phase, and the cell was further cultured for two hours. Cell was cultured without any chemical substance in the same condition, and was used as a control. Concentrations of the chemical substances were defined to inhibit the growth of the yeast but not lead to death.
# After the completion of cultivation, the culture was centrifuged to collect the cells. To the cells, sodium acetate buffer (50 mM sodium acetate, 10 mM EDTA, 1% SDS) was added, and the mixture was shaken at 65° C. for five minutes, followed by returning to room temperature, and obtaining the supernatant, which procedure was repeated two times. To the supernatant, ½ amount of a solution of phenol/chloroform (1:1) was added, and the mixture was centrifuged to give a supernatant, an equal amount of chloroform was added, and the mixture was centrifuged to give a supernatant. To the supernatant, an equal amount of isopropanol containing 0.3 M sodium acetate was added, and the mixture was allowed to stand at room temperature for 30 minutes, after which the mixture was centrifuged to give sediment of the whole RNAs. Seventy % ethanol was added to the sediment, and the mixture was again centrifuged to give sediment, which was then dried and dissolved in water. mRNA was isolated from the whole RNAs as followings. In view of the fact that a poly A chain is attached to the 3′ terminus of mRNA, a polynucleotide having a poly T structure which was immobilized on the surface of latex beads was used to trap the mRNA, and then the mRNA was washed and eluted with spine column (Oligotex-dT30<Super>mRNA Purification Kit, Takara). Reverse transcription of the mRNA was conducted with a reverse transcriptase (Super Script II Reverse Transcriptase; catalogue No. 18064-014, GibcoBRL) using fluorescence-labeled nucleotides to give cDNAs that were introduced with Cy3-dUTP or Cy5-dUTP during the reverse transcription.
# The labeled cDNAs were dissolved in TE buffer (10 mM Tris-HCl/1 mM EDTA, pH 8.0), and the solution was dropped on the DNA chip containing the whole genes of yeast (DNA Chip Research Inc. Japan) so that the cDNAs were hybridized on the DNA chip at 65° C. for over 12 hours. The fluoresces intensity of the DNA chip was read with a scanner, and the ratio relative to the fluorescence intensity resulting from the absence of chemical substance was estimated as the following, which is shown in Tables 1 to 9.
# In the Tables, “Intensity” indicated in the rightmost column is a value of the level of expressed mRNA of each gene in control cells as divided by the average level of the expressions of the whole genes. A gene of which mRNA level is lower in control, and is higher in cases of addition of chemical substance, is especially useful in the detection of toxic substances.
# Here, when a ratio of an amount of mRNA expressed in the presence of the chemical substance to an amount of mRNA expressed in the absence of the chemical substance is two or more, then it is considered significant.
structure (smiles),measurement,setting,value
"S=C([S-])NCCNC(=S)[S-].[Zn+2] [(11), Zinc N,N′-ethylenebis(dithiocarbamate)]",The level of expressed mRNA in the presence of chemical substance/The level of expressed mRNA in the absence of chemical substance,"yeast gene YKL086W, cultured two hours with substance",0.7
same,The level of expressed mRNA in the presence of chemical substance/The level of expressed mRNA in the absence of chemical substance,"yeast gene YKL151C, cultured two hours with substance",2.3
same,The level of expressed mRNA in the presence of chemical substance/The level of expressed mRNA in the absence of chemical substance,"yeast gene YKL153W, cultured two hours with substance",2.1
same,The level of expressed mRNA in the presence of chemical substance/The level of expressed mRNA in the absence of chemical substance,"yeast gene YKL195W, cultured two hours with substance",1.0
same,The level of expressed mRNA in the presence of chemical substance/The level of expressed mRNA in the absence of chemical substance,yeast gene YKR076W,18.6
same,The level of expressed mRNA in the presence of chemical substance/The level of expressed mRNA in the absence of chemical substance,"yeast gene YKR091W, cultured two hours with substance",1.1
same,The level of expressed mRNA in the presence of chemical substance/The level of expressed mRNA in the absence of chemical substance,yeast gene YLL060C (detoxification protein gene),14.1
same,The level of expressed mRNA in the presence of chemical substance/The level of expressed mRNA in the absence of chemical substance,yeast gene YLL060C (stress protein genes),14.1
same,The level of expressed mRNA in the presence of chemical substance/The level of expressed mRNA in the absence of chemical substance,"yeast gene YLR031W, cultured two hours with substance",0.7
same,The level of expressed mRNA in the presence of chemical substance/The level of expressed mRNA in the absence of chemical substance,"yeast gene YLR054C, cultured two hours with substance",0.7
same,The level of expressed mRNA in the presence of chemical substance/The level of expressed mRNA in the absence of chemical substance,yeast gene YLR142W,3.8
same,The level of expressed mRNA in the presence of chemical substance/The level of expressed mRNA in the absence of chemical substance,"yeast gene YLR149C, cultured two hours with substance",2.8
same,The level of expressed mRNA in the presence of chemical substance/The level of expressed mRNA in the absence of chemical substance,"yeast gene YLR152C, cultured two hours with substance",3.6
same,The level of expressed mRNA in the presence of chemical substance/The level of expressed mRNA in the absence of chemical substance,"yeast gene YLR194C, cultured two hours with substance",1.4
same,The level of expressed mRNA in the presence of chemical substance/The level of expressed mRNA in the absence of chemical substance,"yeast gene YLR205C, cultured two hours with substance",0.4
same,The level of expressed mRNA in the presence of chemical substance/The level of expressed mRNA in the absence of chemical substance,"yeast gene YLR297W, cultured two hours with substance",3.5
same,The level of expressed mRNA in the presence of chemical substance/The level of expressed mRNA in the absence of chemical substance,"yeast gene YLR324W, cultured two hours with substance",0.9
same,The level of expressed mRNA in the presence of chemical substance/The level of expressed mRNA in the absence of chemical substance,"yeast gene YLR346C, cultured two hours with substance",0.5
same,The level of expressed mRNA in the presence of chemical substance/The level of expressed mRNA in the absence of chemical substance,"yeast gene YLR350W, cultured two hours with substance",0.9
same,The level of expressed mRNA in the presence of chemical substance/The level of expressed mRNA in the absence of chemical substance,"yeast gene YLR387C, cultured two hours with substance",0.9
same,The level of expressed mRNA in the presence of chemical substance/The level of expressed mRNA in the absence of chemical substance,"yeast gene YLR460C, cultured two hours with substance",14.3
same,The level of expressed mRNA in the presence of chemical substance/The level of expressed mRNA in the absence of chemical substance,"yeast gene YML117W, cultured two hours with substance",0.8
same,The level of expressed mRNA in the presence of chemical substance/The level of expressed mRNA in the absence of chemical substance,yeast gene YML131W,14.4
same,The level of expressed mRNA in the presence of chemical substance/The level of expressed mRNA in the absence of chemical substance,"yeast gene YMR009W, cultured two hours with substance",2.1
same,The level of expressed mRNA in the presence of chemical substance/The level of expressed mRNA in the absence of chemical substance,"yeast gene YMR067C, cultured two hours with substance",1.1
same,The level of expressed mRNA in the presence of chemical substance/The level of expressed mRNA in the absence of chemical substance,"yeast gene YMR090W, cultured two hours with substance",8.8
same,The level of expressed mRNA in the presence of chemical substance/The level of expressed mRNA in the absence of chemical substance,"yeast gene YMR095C, cultured two hours with substance",2.1
same,The level of expressed mRNA in the presence of chemical substance/The level of expressed mRNA in the absence of chemical substance,"yeast gene YMR097C, cultured two hours with substance",1.5
same,The level of expressed mRNA in the presence of chemical substance/The level of expressed mRNA in the absence of chemical substance,"yeast gene YMR102C, cultured two hours with substance",1.5
same,The level of expressed mRNA in the presence of chemical substance/The level of expressed mRNA in the absence of chemical substance,"yeast gene YMR107W, cultured two hours with substance",3.0
same,The level of expressed mRNA in the presence of chemical substance/The level of expressed mRNA in the absence of chemical substance,"yeast gene YMR140W, cultured two hours with substance",0.7
same,The level of expressed mRNA in the presence of chemical substance/The level of expressed mRNA in the absence of chemical substance,"yeast gene YMR180C, cultured two hours with substance",0.7
same,The level of expressed mRNA in the presence of chemical substance/The level of expressed mRNA in the absence of chemical substance,"yeast gene YMR184W, cultured two hours with substance",1.5
same,The level of expressed mRNA in the presence of chemical substance/The level of expressed mRNA in the absence of chemical substance,"yeast gene YMR191W, cultured two hours with substance",2.3
same,The level of expressed mRNA in the presence of chemical substance/The level of expressed mRNA in the absence of chemical substance,"yeast gene YMR195W, cultured two hours with substance",1.1
same,The level of expressed mRNA in the presence of chemical substance/The level of expressed mRNA in the absence of chemical substance,"yeast gene YMR295C, cultured two hours with substance",1.2
same,The level of expressed mRNA in the presence of chemical substance/The level of expressed mRNA in the absence of chemical substance,"yeast gene YMR316W, cultured two hours with substance",1.5
same,The level of expressed mRNA in the presence of chemical substance/The level of expressed mRNA in the absence of chemical substance,"yeast gene YNL044W, cultured two hours with substance",1.1
same,The level of expressed mRNA in the presence of chemical substance/The level of expressed mRNA in the absence of chemical substance,"yeast gene YNL074C, cultured two hours with substance",1.3
same,The level of expressed mRNA in the presence of chemical substance/The level of expressed mRNA in the absence of chemical substance,"yeast gene YNL092W, cultured two hours with substance",0.7
